Source: patent US20120322827A1, “COMPOUNDS AND METHODS” (priority 2010, published 2012)

Biological target: T1, Recombinant HDAC9 isoform 4 (Homo sapiens, UniProt Q9UKV0)
T1 construct: purchased BPS Bioscience
Experiment: Histone Deacetylase 9 (HDAC9) inhibition assay, fluorogenic substrate
Format: biochemical
Settings: mean of a minimum of 2 experiments; 11 point 3x dilution series from 100 uM; 45 minutes incubation at room temperature; read-out: mean pIC50 of HDAC9 inhibition (converted)
From the text: Histone Deacetylase 9 (HDAC9) Inhibition Assay:
Novel histone deacetylase 9 (HDAC9) inhibitors were characterized in an in vitro biochemical functional assay. The assay measures the increased fluorescent signal due to deacetylation, by HDAC9, of a fluorogenic substrate. The commercial available substrate is Class IIa HDAC-specific and contains an acetylated lysine residue and would releases the fluorescent signal upon trypsin cleavage after deacetylation.
Specifically, test compounds diluted to various concentrations in 100% DMSO are first dispensed into 384-well assay plates. Recombinant HDAC9 isoform 4 (purchased from BPS Bioscience) in complete assay buffer (50 mM Tris-HCl, pH 8.0, 137 mM NaCl, 2.7 mM KCl, 1 mM MgCl2, 0.05% BSA & 0.005% Tween 20) were then added to each well (5 uL/well) using Multidrop Combi (Thermo Scientific), followed by 5 uL/well substrate (purchased from BPS Bioscience, 4.5 uM final). After 45 minutes incubation at room temperature, 10 uL 2× developer solution (assay buffer with 40 uM Trypsin and 20 uM Trichostatin A) was added. The plates were then incubated 1 hour at room temperature before reading in fluorescent intensity mode at 450 nm in an Envision (Perkin Elmer) plate reader. Percent Inhibition of HDAC9 activity by compounds in each test wells was calculated by normalizing to fluorescent signal in control wells containing DMSO only.
For dose response experiments, normalized data were fit by ABASE/XC50 using the equation y=a+(b−a)/(1+(10̂×/10̂c)̂d), where a is the minimum % activity, b is the maximum % activity, c is the pIC50, d is the Hill slope.

T1 sequence (Q9UKV0 1-1066 isoform Q9UKV0-5): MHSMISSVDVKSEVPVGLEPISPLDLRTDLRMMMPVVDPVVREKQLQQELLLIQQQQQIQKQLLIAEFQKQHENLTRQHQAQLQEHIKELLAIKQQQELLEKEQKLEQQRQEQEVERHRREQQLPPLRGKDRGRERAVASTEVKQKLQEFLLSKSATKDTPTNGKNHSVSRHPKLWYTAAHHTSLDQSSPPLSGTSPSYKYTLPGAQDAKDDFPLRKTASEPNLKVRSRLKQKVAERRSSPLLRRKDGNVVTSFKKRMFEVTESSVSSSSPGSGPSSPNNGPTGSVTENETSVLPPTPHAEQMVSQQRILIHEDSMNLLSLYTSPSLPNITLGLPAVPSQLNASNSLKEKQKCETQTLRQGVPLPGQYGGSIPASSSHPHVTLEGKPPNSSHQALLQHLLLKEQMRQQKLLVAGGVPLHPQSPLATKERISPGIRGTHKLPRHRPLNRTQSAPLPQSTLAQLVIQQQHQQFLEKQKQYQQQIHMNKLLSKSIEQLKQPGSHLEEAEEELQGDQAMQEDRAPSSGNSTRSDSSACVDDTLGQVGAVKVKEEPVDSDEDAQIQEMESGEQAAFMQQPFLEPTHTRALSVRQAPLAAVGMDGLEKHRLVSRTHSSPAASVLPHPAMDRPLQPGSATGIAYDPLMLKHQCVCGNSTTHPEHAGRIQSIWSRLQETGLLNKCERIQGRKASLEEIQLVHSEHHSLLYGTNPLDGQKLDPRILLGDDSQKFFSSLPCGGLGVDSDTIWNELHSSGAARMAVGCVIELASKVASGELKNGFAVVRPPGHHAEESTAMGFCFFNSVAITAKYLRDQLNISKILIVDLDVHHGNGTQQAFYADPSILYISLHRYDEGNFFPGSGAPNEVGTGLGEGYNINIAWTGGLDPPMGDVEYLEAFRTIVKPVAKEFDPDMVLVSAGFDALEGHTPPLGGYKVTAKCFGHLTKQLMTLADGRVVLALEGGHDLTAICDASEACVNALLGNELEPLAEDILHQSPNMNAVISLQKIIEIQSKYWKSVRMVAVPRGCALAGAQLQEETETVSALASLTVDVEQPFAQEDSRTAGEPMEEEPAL

CC(C)(CNC(=O)CCCc1noc(C(F)(F)F)n1)c1coc(-c2ccc(F)cc2)n1 [Example 3, N-(2-(2-(4-Fluorophenyl)oxazol-4-yl)-2-methylpropyl)-4-(5-(trifluoromethyl)-1,2,4-oxadiazol-3-yl)butanamide]
IC50: < 1 µM

CN(C)CCC(CNC(=O)CCCc1noc(C(F)(F)F)n1)c1coc(-c2ccc(F)cc2)n1 (stereo not shown) [Example 4, N-(4-(Dimethylamino)-2-(2-(4-fluorophenyl)oxazol-4-yl)butyl)-4-(5-(trifluoromethyl)-1,2,4-oxadiazol-3-yl)butanamide]
IC50: < 1 µM

CN1CCC(CNC(=O)CCCc2noc(C(F)(F)F)n2)(c2coc(-c3ccc(F)cc3)n2)CC1 [Example 5, N-((4-(2-(4-Fluorophenyl)oxazol-4-yl)-1-methylpiperidin-4-yl)methyl)-4-(5-(trifluoromethyl)-1,2,4-oxadiazol-3-yl)butanamide]
IC50: < 1 µM

CN(C)CCC(CNC(=O)CCCc1ccc(C(=O)C(F)(F)F)s1)c1coc(-c2ccc(F)cc2)n1 (stereo not shown) [Example 18, N-(4-(Dimethylamino)-2-(2-(4-fluorophenyl)oxazol-4-yl)butyl)-4-(5-(2,2,2-trifluoroacetyl)thiophen-2-yl)butanamide]
IC50: < 1 µM
